# Columns and labels:
# Assay type in all cases: functional
# Staphylococcus aureus [1] = assay: Antibacterial activity against Staphylococcus aureus assessed as zone of inhibition incubated for 3 days by cup plate agar diffusion assay; details: time 3 day; note: test concentration or dose not given here
# Bacillus subtilis [2] = assay: Antibacterial activity against Bacillus subtilis assessed as zone of inhibition incubated for 3 days by cup plate agar diffusion assay; details: time 3 day; note: test concentration or dose not given here
# Escherichia coli [3] = assay: Antibacterial activity against Escherichia coli assessed as zone of inhibition incubated for 3 days by cup plate agar diffusion assay; details: time 3 day; note: test concentration or dose not given here
# Pseudomonas aeruginosa [4] = assay: Antibacterial activity against Pseudomonas aeruginosa assessed as zone of inhibition incubated for 3 days by cup plate agar diffusion assay; details: time 3 day; note: test concentration or dose not given here
# Staphylococcus aureus [5] = assay: Antibacterial activity against Staphylococcus aureus assessed as inhibition of bacterial growth by broth micro dilution assay
# Bacillus = assay: Antibacterial activity against Bacillus assessed as inhibition of bacterial growth by broth micro dilution assay
# Escherichia coli [6] = assay: Antibacterial activity against Escherichia coli assessed as inhibition of bacterial growth by broth micro dilution assay
# Escherichia coli [7] = assay: Antibacterial activity against Escherichia coli MTCC 443 assessed as inhibition of bacterial growth incubated for 18 to 20 hrs by broth microdilution assay; details: time 18-20 hrs
# Staphylococcus aureus [8] = assay: Antibacterial activity against Staphylococcus aureus MTCC 96 assessed as inhibition of bacterial growth incubated for 18 to 20 hrs by broth microdilution assay; details: time 18-20 hrs
# Enterococcus faecalis = assay: Antibacterial activity against Enterococcus faecalis PCM 2673 assessed as inhibition of bacterial growth incubated for 24 hrs by microbroth dilution assay
# Escherichia coli [9] = assay: Antibacterial activity against Escherichia coli ATCC 8739 assessed as inhibition of bacterial growth incubated for 24 hrs by microbroth dilution assay
# Escherichia coli [10] = assay: Antibacterial activity against Escherichia coli ATCC 25922 assessed as zone of inhibition incubated for 24 hrs by paper disk method; note: test concentration or dose not given here
# Pseudomonas aeruginosa [11] = assay: Antibacterial activity against Pseudomonas aeruginosa ATCC 27853 assessed as zone of inhibition incubated for 24 hrs by paper disk method; note: test concentration or dose not given here
# Pseudomonas = assay: Antibacterial activity against Pseudomonas assessed as zone of inhibition; note: test concentration or dose not given here
# Escherichia coli [12] = assay: Antibacterial activity against Escherichia coli NCIM 2256 assessed as inhibition of bacterial growth incubated for 24 hrs by serial twofold dilution assay
# Pseudomonas fluorescens = assay: Antibacterial activity against Pseudomonas fluorescens NCIM 2173 assessed as inhibition of bacterial growth incubated for 24 hrs by serial twofold dilution assay
# [13] = system: Sphingomonas paucimobilis; assay: Antibacterial activity against Flavobacterium devorans ATCC 10829 assessed as inhibition of bacterial growth incubated for 24 hrs by serial twofold dilution assay
# Escherichia coli [14] = assay: Antibacterial activity against Escherichia coli 1411 assessed as inhibition of bacterial growth incubated for 24 hrs by two-fold serial dilution method
# Escherichia coli [15] = assay: Antibacterial activity against Escherichia coli SM1411 assessed as inhibition of bacterial growth incubated for 24 hrs by two-fold serial dilution method
# Klebsiella pneumoniae = assay: Antibacterial activity against Klebsiella pneumoniae assessed as zone of inhibition incubated for 24 hrs by disk diffusion assay; note: test concentration or dose not given here
# Bacillus subtilis [16] = assay: Antibacterial activity against Bacillus subtilis assessed as inhibition of bacterial growth relative to control
# Escherichia coli [17] = assay: Antibacterial activity against Escherichia coli assessed as inhibition of bacterial growth relative to control
# Escherichia coli [18] = assay: Antibacterial activity against Escherichia coli MTCC 40 assessed as zone of inhibition incubated for 24 hrs by well-plate method; note: test concentration or dose not given here
structure (smiles),measurement,setting,value
Cc1cc(=O)oc2c(C(=O)/C=C/c3ccc(F)cc3)c(OCc3cnnn3Cc3ccccc3)ccc12,inhibition zone (IZ),Staphylococcus aureus [1],27 mm
same,inhibition zone (IZ),Bacillus subtilis [2],11 mm
same,inhibition zone (IZ),Escherichia coli [3],27 mm
same,inhibition zone (IZ),Pseudomonas aeruginosa [4],10 mm
Cc1cc(C)c2c(C3NNC(=O)N3)cc(=O)oc2c1 (configuration not stated),MIC,Staphylococcus aureus [5],6.25 µg/mL
same,MIC,Bacillus,6.25 µg/mL
same,MIC,Escherichia coli [6],50 µg/mL
Cc1cc(=O)oc2cc(OC(=O)CNC3N=C(c4ccc(F)cc4)C=C(c4ccc(Cl)cc4)S3)c([N+](=O)[O-])cc12 (configuration not stated),MIC,Escherichia coli [7],50 µg/mL
same,MIC,Staphylococcus aureus [8],250 µg/mL
COc1ccccc1-n1cc(COc2cc(=O)oc3ccccc23)nn1,MIC,Enterococcus faecalis,12.5 µg/mL
same,MIC,Escherichia coli [9],1600 µg/mL
Cc1ccc2c(C3NNC(=O)N3)cc(=O)oc2c1C (configuration not stated),MIC,Staphylococcus aureus [5],12.6 µg/mL
same,MIC,Bacillus,3.12 µg/mL
same,MIC,Escherichia coli [6],25 µg/mL
O=C(COc1cc(=O)oc2ccccc12)NC1CCCCCC1,inhibition zone (IZ),Escherichia coli [10],11 mm
same,inhibition zone (IZ),Pseudomonas aeruginosa [11],10 mm
Cc1ccc2c(-c3nc4ccccc4[nH]3)cc(=O)oc2c1,inhibition zone (IZ),Pseudomonas,4.1 mm
COc1ccc2oc(=O)cc(C3NNC(=O)N3)c2c1 (configuration not stated),MIC,Staphylococcus aureus [5],0.8 µg/mL
same,MIC,Bacillus,0.8 µg/mL
same,MIC,Escherichia coli [6],0.8 µg/mL
COc1ccc2c(C3NNC(=O)N3)cc(=O)oc2c1 (configuration not stated),MIC,Staphylococcus aureus [5],0.8 µg/mL
same,MIC,Bacillus,3.12 µg/mL
same,MIC,Escherichia coli [6],1.6 µg/mL
COc1cc(/C=C/C(=O)c2c(OCc3cnnn3Cc3ccccc3)ccc3c(C)cc(=O)oc23)cc(OC)c1OC,inhibition zone (IZ),Staphylococcus aureus [1],35 mm
same,inhibition zone (IZ),Bacillus subtilis [2],15 mm
same,inhibition zone (IZ),Escherichia coli [3],33 mm
same,inhibition zone (IZ),Pseudomonas aeruginosa [4],14 mm
O=c1cc(-c2nc3ccccc3[nH]2)c2cc(Br)ccc2o1,inhibition zone (IZ),Pseudomonas,4.8 mm
Cc1cc(=O)oc2c(C(=O)/C=C/c3ccccc3)c(OCc3cnnn3Cc3ccccc3)ccc12,inhibition zone (IZ),Staphylococcus aureus [1],11 mm
same,inhibition zone (IZ),Bacillus subtilis [2],8 mm
same,inhibition zone (IZ),Escherichia coli [3],10 mm
same,inhibition zone (IZ),Pseudomonas aeruginosa [4],4 mm
O=C(N[C@H](CO)[C@H](O)c1ccc([N+](=O)[O-])cc1)C(Cl)Cl [CHLORAMPHENICOL],MIC,Enterococcus faecalis,5 µg/mL
same,MIC,Escherichia coli [9],1.2 µg/mL
same,MIC,Escherichia coli [7],50 µg/mL
same,MIC,Staphylococcus aureus [8],50 µg/mL
same,MIC,Escherichia coli [12],2 µg/mL
same,MIC,Pseudomonas fluorescens,2 µg/mL
same,MIC,[13],2 µg/mL
Cc1ccc(C2CC(c3cc4ccccc4oc3=O)=NN2)cc1 (configuration not stated),MIC,Escherichia coli [14],16 µg/mL
same,MIC,Escherichia coli [15],18 µg/mL
COc1ccc(Nc2nnc(COc3ccc4c(C)cc(=O)oc4c3)s2)cc1,inhibition zone (IZ),Klebsiella pneumoniae,15 mm
COc1ccc(-n2cc(COc3cc(=O)oc4ccccc34)nn2)cc1F,MIC,Enterococcus faecalis,100 µg/mL
same,MIC,Escherichia coli [9],200 µg/mL
Cc1ccc(/C=C/C(=O)c2c(OCc3cnnn3Cc3ccccc3)ccc3c(C)cc(=O)oc23)cc1,inhibition zone (IZ),Staphylococcus aureus [1],17 mm
same,inhibition zone (IZ),Bacillus subtilis [2],6 mm
same,inhibition zone (IZ),Escherichia coli [3],14 mm
same,inhibition zone (IZ),Pseudomonas aeruginosa [4],7 mm
Cc1cc(=O)oc2cc(OC(=O)CNC3N=C(c4ccc(F)cc4)C=C(c4cccc(Br)c4)S3)c([N+](=O)[O-])cc12 (configuration not stated),MIC,Escherichia coli [7],500 µg/mL
same,MIC,Staphylococcus aureus [8],100 µg/mL
O=C(COc1cc(=O)oc2ccccc12)N(c1ccccc1)c1ccccc1,inhibition zone (IZ),Escherichia coli [10],10 mm
same,inhibition zone (IZ),Pseudomonas aeruginosa [11],12 mm
Cc1ccc2oc(=O)cc(-c3nc4ccccc4[nH]3)c2c1,inhibition zone (IZ),Pseudomonas,4.1 mm
O=c1oc2ccccc2cc1C1=NNC(c2ccc(Br)cc2)C1 (configuration not stated),MIC,Escherichia coli [14],> 70 µg/mL
same,MIC,Escherichia coli [15],> 70 µg/mL
COC(=O)c1nnn(CC(=O)c2cc3cc(C)ccc3oc2=O)c1C(=O)OC,inhibition (INH),Bacillus subtilis [16],83.3%
same,inhibition (INH),Escherichia coli [17],83.3%
COc1ccc2oc(=O)cc(-c3nc4ccccc4[nH]3)c2c1,inhibition zone (IZ),Pseudomonas,4 mm
C[C@@H](NC(=O)COc1cc(=O)oc2ccccc12)c1cccc2ccccc12,inhibition zone (IZ),Escherichia coli [10],12 mm
same,inhibition zone (IZ),Pseudomonas aeruginosa [11],14 mm
O=c1cc(OCc2cn(-c3cccc([N+](=O)[O-])c3)nn2)c2ccccc2o1,MIC,Enterococcus faecalis,400 µg/mL
same,MIC,Escherichia coli [9],1600 µg/mL
Cc1cc(=O)oc2cc(OC(=O)CNC3N=C(c4ccc(F)cc4)C=C(c4ccc(O)cc4)S3)c([N+](=O)[O-])cc12 (configuration not stated),MIC,Escherichia coli [7],250 µg/mL
same,MIC,Staphylococcus aureus [8],250 µg/mL
Cc1cc(=O)oc2cc(OC(=O)CNC3N=C(c4ccc(F)cc4)C=C(c4cccc(Oc5ccccc5)c4)S3)c([N+](=O)[O-])cc12 (configuration not stated),MIC,Escherichia coli [7],250 µg/mL
same,MIC,Staphylococcus aureus [8],200 µg/mL
O=c1oc2ccc3ccccc3c2cc1-c1csc(N/N=C/c2cn(-c3ccccc3)nc2-c2cc3ccccc3oc2=O)n1,inhibition zone (IZ),Escherichia coli [18],21 mm
O=C1NNC(c2cc(=O)oc3ccc(Cl)cc23)N1 (configuration not stated),MIC,Staphylococcus aureus [5],25 µg/mL
same,MIC,Bacillus,6.25 µg/mL
same,MIC,Escherichia coli [6],25 µg/mL
Cc1cc(=O)oc2cc(OC(=O)CNC3N=C(c4ccc(F)cc4)C=C(c4ccc(F)cc4)S3)c([N+](=O)[O-])cc12 (configuration not stated),MIC,Escherichia coli [7],200 µg/mL
same,MIC,Staphylococcus aureus [8],125 µg/mL

# Source: ChEMBL document CHEMBL5230129, “Antibacterial activities with the structure-activity relationship of coumarin derivatives” (2020)
